Reference: patent US11453640B2, “Small molecules for disrupting the super elongation complex and inhibiting transcription elongation for cancer therapy” (NORTHWESTERN UNIVERSITY, priority 2018, dated 2022)

Tests used:
[1] = test system: ELL2; assay: Western blotting of ELL2 protein levels in 293T cells; format: cell-based, human; conditions: 20 μM, 6 hr
Source text: FIG. 10, related to FIG. 3. Disruption of SEC phenocopies slow Pol II mutants and reduces Pol II processivity. (A) Identification of the 1,057 genes with typical Pol II termination signals around the TES. Pol II signals from WT Pol II mutant expressing cells were K-means clustered into 5 groups with a window of 15 kb around the TES. The expressing genes from clusters with a typical Pol II termination signals were selected and plotted. (B) SEC inhibitor treatments of the WT Pol II mutant expressing cells lead to a Pol II phenotype similar to slower Pol II mutant expressing cells as viewed at the 3′-end of genes. (C-D) Time-dependent and dose-dependent shift of Pol II signals around the TES sites by KL-2 treatment (N=1,057). (E) Genome browser tracks of Serine 2 phosphorylated (Ser2P) Pol II at the SRSF1 gene in HEK293T cells treated with vehicle or SEC inhibitors. SEC inhibitor treatments result in increased Pol II occupancy at the promoter-proximal region and increased occupancy of Ser2P Pol II in the gene body. […] (H) SEC inhibition results in decreased protein levels of the SEC subunit ELL2. 293T cells were treated with 20 μM of the indicated inhibitors for 6 hr before harvesting cells for western blotting. (I-K) Depletion of ELL2 in HEK293T cells (I) results in apparent early termination of Pol II with reduced Pol II occupancy downstream of the PIM3 (J) and ACTB (K) annotated TES. […]

[2] = test system: AFF1 and AFF4 occupancy on chromatin; assay: ChIP-seq of AFF1 and AFF4 chromatin occupancy in HEK293T cells; format: cell-based, human; conditions: 6 hr
Source text: FIG. 1. Peptidomimetic identification of disruptors of the AFF4-CCNT1 interaction within the Super Elongation Complex. (A) Schematic for the identification of small molecule inhibitors of the AFF4-CCNT1 interaction using in silico high-throughput screening. Compounds from the ZINC database were docked with the AFF4-CCNT1 structure (4IMY) using a three-tier glide-docking algorithm, which led to 40 candidates. Residues forming the deep binding pocket of CCNT1 are labeled orange and residues of the AFF4 peptide are labeled red. (B) Validation screening identified KL-1 as a potential SEC disruptor using AlphaLISA screening. […] The Ki constants of both compounds were measured with the AlphaLISA assays. […] 5 μl, 10 and 20 μl cell lysates were loaded and the protein levels of AFF1, AFF4, CCNT1, CDK9 and Tubulin (load control) were determined by western blotting.
Chromatin Immunoprecipitation Sequencing. […] ChIP-seq reads were aligned to the Drosophila genome (UCSC dm3) or human genome (UCSC hgl9). Alignments were processed with Bowtie version 1.1.2, allowing only uniquely mapping reads with up to two mismatches within the 50 bp read. The resulting reads were extended to 150 bp toward the interior of the sequenced fragment and normalized to total reads aligned (reads per million, r.p.m.). […] P-values were calculated with a two-sided Kolmogorov-Smirnov test. […]

[3] = test system: MDA231-LM2 cells; assay: Annexin V apoptosis in MDA231-LM2 cells; format: cell-based; conditions: 24 hr
Protocol: (§1) FIG. 14, related to FIG. 7. SEC disruptors delay tumor progression and improve survival of MDA231-LM2 tumor mice. (A) KL-1 and KL-2 inhibit the colony formation of MDA231-LM2 cells in vitro. 5×10^3 MDA231-LM2 cells were seeded in 6-well plates and treated with KL-1 or KL-2 at the indicated doses for 5 days. Crystal violet staining was performed to stain the colonies. (B) KL-1 and KL-2 induce apoptosis in MDA231-LM2 cells. Bar graph depiction of Annexin V positive MDA231-LM2 cells after 24 hr of KL-1 and KL-2 treatments at the indicated concentrations. Data are represented as Mean+/−SD. […] Each individual line indicates the weights of each mouse during toxicity test.

[4] = Toxicity test in mice (body weight, sickness); format: in vivo; conditions: 5 doses of 50 mg/kg, monitored 35 days
Protocol: as §1

SMILES: COc1cccc(C(=O)CC(=O)C(=O)Nc2cc(Cl)ccc2C)c1 [KL-1, N-(5-chloro-2-methylphenyl)-4-oxo-4-(3-methoxyphenyl)-2-oxobutanamide]
- ELL2 protein levels [1]: led to reduced ELL2 protein levels
- chromatin occupancy of AFF1 and AFF4 [2]: decreased occupancy of AFF1 and AFF4
- apoptosis (Annexin V staining) [3]: increase apoptosis
- weight loss in mice ([4]; intraperitoneal): does not result in significant weight loss
- sign of sickness in mice [4]: no obvious sign of sickness was observed
